Laboratory results: ChEMBL document CHEMBL1201862, “PubChem BioAssay data set” (2004)
The source made the active and inactive calls. Rule as the data show it, for most assays here: actives have a measured EC50 and inactives only a lower limit.

Key:
[1] = system: Streptococcus sp. 'group A'; experiment: growth inhibition of control SK(-) GAS strain, dose response, counter-screen for streptokinase expression inhibitor project, luminescence, kanamycin, BacTiterGlo, confirmation (AID 1900); format: functional, organism-based
Streptokinase A = target: T1, Streptokinase A (Streptococcus pyogenes serotype M1, UniProt P10520); experiment: S. pyogenes streptokinase expression inhibitors, potency, dose response, plasminogen activation absorbance, OD405 (AID 1914); format: functional, Streptococcus pyogenes M1 GAS;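 also: secreted streptokinase activity via plasminogen activation per viability signal from cell pellet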
T1 sequence (P10520 whole entry): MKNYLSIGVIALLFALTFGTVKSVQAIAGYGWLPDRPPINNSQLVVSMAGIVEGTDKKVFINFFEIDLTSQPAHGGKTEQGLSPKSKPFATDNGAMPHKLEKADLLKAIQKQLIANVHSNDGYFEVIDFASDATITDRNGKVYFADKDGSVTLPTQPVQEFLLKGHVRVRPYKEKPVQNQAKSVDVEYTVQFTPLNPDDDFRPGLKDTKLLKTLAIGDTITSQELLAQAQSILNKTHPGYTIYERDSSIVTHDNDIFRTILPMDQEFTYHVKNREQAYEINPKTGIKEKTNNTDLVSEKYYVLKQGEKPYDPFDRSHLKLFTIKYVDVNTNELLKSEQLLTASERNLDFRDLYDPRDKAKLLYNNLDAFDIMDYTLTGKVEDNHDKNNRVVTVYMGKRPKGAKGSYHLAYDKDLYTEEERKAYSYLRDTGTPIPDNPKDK

Streptococcus = experiment: Group A Streptococcus viability loss, dose response, counter-screen for streptokinase expression inhibitor project, luminescence, BacTiterGlo (AID 1915); format: functional, organism-based;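 also: potency for reduction of bacterial viability or growth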
[2] = target: Luciferin 4-monooxygenase (Photinus pyralis, UniProt P08659); experiment: firefly luciferase enzyme inhibitors, dose response, biochemical, luminescence (AID 1891)
[3] = Luminescence Cell-Based Dose Confirmation HTS to Identify Inhibitors of Platelet Dense Granule Release. [Related pubchem assays: 1663 (Primary HTS), 1678 (Summary of Project)]; format: functional
INS1 = experiment: beta cell apoptosis inhibitors, cytokine rescue, dose response, luminescence, retest (AID 449756); format: functional, cell-based; settings: Rattus norvegicus;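 also: cell death triggered by IL-1 beta plus TNF-alpha plus IFN-gamma mixture; protective hits raise ATP signal compared with cytokine alone wells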
[4] = target: T2, RNA-binding protein pos-1 (Caenorhabditis elegans, UniProt G5EF15); experiment: inhibitors of POS-1/mex-3 RNA binding, dose response, biochemical, fluorescence polarization (AID 1964);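 also: purified POS-1 fused to maltose binding protein made in E. coli; potency of compounds blocking POS-1 binding to fluorescent RNA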
T2 sequence (G5EF15 whole entry): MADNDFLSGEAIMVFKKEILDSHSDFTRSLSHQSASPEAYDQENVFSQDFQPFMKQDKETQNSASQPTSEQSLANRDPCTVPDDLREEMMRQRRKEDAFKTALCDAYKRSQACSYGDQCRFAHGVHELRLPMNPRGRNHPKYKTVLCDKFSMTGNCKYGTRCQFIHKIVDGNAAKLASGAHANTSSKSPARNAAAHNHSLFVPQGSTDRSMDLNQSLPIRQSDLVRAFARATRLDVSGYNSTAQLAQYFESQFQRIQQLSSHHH

[5] = target: T3, Zinc finger protein mex-5 (Caenorhabditis elegans, UniProt Q9XUB2); experiment: MEX-5/TCR-2 RNA interaction inhibitors, dose response, biochemical, C. elegans, fluorescence polarization (AID 1960)
T3 sequence (Q9XUB2 whole entry): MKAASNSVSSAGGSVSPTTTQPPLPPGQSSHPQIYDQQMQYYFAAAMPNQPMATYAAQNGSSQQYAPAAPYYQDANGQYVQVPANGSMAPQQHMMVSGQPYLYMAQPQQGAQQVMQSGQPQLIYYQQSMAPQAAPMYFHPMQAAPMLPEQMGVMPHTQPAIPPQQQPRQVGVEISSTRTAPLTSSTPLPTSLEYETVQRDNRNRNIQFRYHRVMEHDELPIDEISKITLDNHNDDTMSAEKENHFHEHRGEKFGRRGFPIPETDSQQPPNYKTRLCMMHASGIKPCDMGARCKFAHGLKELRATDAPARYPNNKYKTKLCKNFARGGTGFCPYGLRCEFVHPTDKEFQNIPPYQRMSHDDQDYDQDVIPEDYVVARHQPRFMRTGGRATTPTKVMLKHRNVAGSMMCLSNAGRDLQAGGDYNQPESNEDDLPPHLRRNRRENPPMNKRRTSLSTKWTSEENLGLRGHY

[6] = Luminescence Cell-Based Dose Confirmation HTS to Identify Activators of 5'UTR Stem-Loop Driven Alpha-Synuclein mRNA Translation in H4 Neuroglioblastoma Cells. [Related pubchem assays: 1829 (Project Summary), 1814 (Primary HTS)]; format: functional
[7] = Luminescence Cell-Based Dose Response HTS to Identify Activators of Luciferase Translation or Activity in H4 […] Cells. [Related pubchem assays: 1829 (Project Summary), 1814 (Primary HTS)]; format: functional
H4 = experiment: Luminescence Cell-Based Dose Response HTS to Identify Activators of 5'UTR Stem-Loop Driven Prion Protein mRNA Translation in H4 Neuroglioblastoma Cells. [Related pubchem assays: 1829 (Project Summary), 1814 (Primary HTS)]; format: functional; settings: Homo sapiens
[8] = inhibitors of intracellular T. cruzi replication, confirmation, NIH3T3 host cells, beta-gal luminescence (AID 2044); format: functional, cell-based;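 also: intracellular parasites grown in NIH/3T3 mouse fibroblasts as host cells; luminescent beta-galactosidase reporter signal from transgenic T. cruzi replicating inside host cells; inhibitors lower the luminescence signal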
[9] = cytotoxicity toward NIH3T3 fibroblasts, dose response, counter-screen, cell-based, ATP luminescence, mouse fibroblasts (AID 2010); format: functional;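 also: cells exposed to compound for about 90 hours before reading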
[10] = Luminescence Cell-Based Dose Retest to Confirm Inhibitors of Cancer Stem Cells. [Related pubchem assays (depositor defined):AID2717, AID2721]; format: functional; settings: Homo sapiens
Cytochrome P450 2D6 = Cytochrome P450 2D6 (Homo sapiens, UniProt P10635);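 also: CYP2D6 member of a cytochrome P450 panel assay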
[11] = target: T4, Heat shock factor protein 1 (Mus musculus, UniProt P38532); experiment: inhibition of MG132-induced HSE-luciferase signal, confirmation, cell-based, NIH3T3, luminescence, dose retest (AID 2382); format: functional;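 also: NIH3T3 fibroblasts with HSF1-driven luciferase reporter stressed by proteasome inhibitor MG132; luminescence from HSF1-driven luciferase expression after 8 hours of MG132 stress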
T4 sequence (P38532 whole entry): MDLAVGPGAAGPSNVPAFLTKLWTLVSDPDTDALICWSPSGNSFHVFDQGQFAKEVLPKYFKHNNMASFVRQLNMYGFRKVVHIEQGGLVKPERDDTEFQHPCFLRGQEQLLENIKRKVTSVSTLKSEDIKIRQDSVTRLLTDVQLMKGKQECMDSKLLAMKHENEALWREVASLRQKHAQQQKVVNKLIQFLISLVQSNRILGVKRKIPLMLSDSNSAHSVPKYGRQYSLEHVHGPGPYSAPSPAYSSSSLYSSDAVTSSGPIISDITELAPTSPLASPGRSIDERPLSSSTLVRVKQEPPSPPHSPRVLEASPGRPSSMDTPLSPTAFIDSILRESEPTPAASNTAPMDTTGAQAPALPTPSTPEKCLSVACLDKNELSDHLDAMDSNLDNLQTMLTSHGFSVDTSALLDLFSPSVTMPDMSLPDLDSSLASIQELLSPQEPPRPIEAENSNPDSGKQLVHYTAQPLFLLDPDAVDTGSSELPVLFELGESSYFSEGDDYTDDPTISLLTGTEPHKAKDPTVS

Cytochrome P450 2C9 = Cytochrome P450 2C9 (Homo sapiens, UniProt P11712)
[12] = target: T5, Rac GTPase-activating protein 1 (Homo sapiens, UniProt Q9H0H5); experiment: MgcRacGAP GTPase-activating activity inhibitors, confirmation, biochemical, ADP Hunter fluorescence, primary and confirmatory (AID 624330); format: functional
T5 sequence (Q9H0H5 whole entry): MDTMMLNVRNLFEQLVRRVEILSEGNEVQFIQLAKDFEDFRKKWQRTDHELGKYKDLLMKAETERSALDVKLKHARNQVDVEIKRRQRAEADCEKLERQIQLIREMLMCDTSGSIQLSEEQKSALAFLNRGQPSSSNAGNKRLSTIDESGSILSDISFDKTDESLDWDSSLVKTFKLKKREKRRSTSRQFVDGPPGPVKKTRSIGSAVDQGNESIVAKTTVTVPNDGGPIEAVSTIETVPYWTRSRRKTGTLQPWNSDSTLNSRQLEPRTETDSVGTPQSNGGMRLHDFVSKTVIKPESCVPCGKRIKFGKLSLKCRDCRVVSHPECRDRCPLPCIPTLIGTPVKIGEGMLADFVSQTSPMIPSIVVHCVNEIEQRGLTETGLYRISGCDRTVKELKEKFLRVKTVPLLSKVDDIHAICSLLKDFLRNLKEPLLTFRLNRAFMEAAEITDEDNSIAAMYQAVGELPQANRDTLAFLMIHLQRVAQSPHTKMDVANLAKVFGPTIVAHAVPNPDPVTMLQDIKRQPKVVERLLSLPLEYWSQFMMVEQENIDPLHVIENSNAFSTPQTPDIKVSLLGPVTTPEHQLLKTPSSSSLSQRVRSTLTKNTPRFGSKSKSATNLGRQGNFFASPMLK

Luciferin 4-monooxygenase, sequence (P08659 whole entry): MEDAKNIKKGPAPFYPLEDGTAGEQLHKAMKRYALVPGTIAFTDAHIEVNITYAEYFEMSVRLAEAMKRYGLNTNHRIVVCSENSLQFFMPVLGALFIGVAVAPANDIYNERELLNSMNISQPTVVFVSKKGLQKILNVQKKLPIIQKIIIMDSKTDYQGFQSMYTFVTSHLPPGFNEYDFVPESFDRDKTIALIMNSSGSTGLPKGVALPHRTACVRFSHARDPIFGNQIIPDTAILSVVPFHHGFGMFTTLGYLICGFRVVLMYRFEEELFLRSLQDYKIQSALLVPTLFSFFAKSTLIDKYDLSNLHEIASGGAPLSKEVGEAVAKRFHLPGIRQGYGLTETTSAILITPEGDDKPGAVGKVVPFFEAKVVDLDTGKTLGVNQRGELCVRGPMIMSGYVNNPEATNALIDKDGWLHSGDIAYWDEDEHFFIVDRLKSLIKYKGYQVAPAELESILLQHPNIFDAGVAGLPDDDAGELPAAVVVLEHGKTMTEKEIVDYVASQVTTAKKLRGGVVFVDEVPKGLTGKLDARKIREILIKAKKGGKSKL
Cytochrome P450 2D6, sequence (P10635 whole entry): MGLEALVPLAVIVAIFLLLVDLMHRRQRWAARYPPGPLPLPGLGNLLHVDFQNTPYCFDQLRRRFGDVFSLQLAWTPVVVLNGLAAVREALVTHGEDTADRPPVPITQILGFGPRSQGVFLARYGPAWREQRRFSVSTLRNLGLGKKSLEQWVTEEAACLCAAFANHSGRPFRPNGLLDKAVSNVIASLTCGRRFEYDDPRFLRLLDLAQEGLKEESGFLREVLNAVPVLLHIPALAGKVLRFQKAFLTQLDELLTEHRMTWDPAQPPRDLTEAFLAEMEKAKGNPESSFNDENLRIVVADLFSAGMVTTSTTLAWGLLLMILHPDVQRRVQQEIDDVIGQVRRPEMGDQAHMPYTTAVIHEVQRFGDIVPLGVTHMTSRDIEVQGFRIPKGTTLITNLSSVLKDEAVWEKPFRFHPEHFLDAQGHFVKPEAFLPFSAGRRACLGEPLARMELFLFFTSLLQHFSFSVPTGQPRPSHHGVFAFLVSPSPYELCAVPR
Cytochrome P450 2C9, sequence (P11712 whole entry): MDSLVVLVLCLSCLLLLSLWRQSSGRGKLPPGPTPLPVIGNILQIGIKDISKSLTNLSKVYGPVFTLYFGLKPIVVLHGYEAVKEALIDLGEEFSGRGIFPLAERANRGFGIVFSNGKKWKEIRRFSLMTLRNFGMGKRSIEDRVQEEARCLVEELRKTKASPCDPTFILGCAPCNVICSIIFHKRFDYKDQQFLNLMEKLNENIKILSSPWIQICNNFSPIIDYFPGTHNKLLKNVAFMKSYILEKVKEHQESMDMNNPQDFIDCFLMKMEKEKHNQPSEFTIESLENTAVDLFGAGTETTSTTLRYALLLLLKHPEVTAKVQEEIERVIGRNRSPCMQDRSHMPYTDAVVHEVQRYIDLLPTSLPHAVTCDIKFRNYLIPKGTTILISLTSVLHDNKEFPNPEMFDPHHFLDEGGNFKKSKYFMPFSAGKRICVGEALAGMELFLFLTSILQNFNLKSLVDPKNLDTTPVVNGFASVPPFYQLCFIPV

## CCc1sc(N(C(=O)Cc2ccccc2)c2ccc(F)cc2)nc1-c1ccccc1
[1]
  EC50: > 150 µM (not active)
Streptokinase A
  EC50: 11.8 µM (active)
Streptococcus
  EC50: > 150 µM (not active)

## Cc1cccc(NC(S)=Nc2ccc3c[nH]nc3c2)c1
[2]
  EC50: > 112 µM (not active)
[3]
  EC50: > 112 µM (not active)
INS1
  AC50: > 260 µM (inactive)

## CC(C)C[C@H](NC(=O)N1CC(=O)Nc2ccccc21)C(=O)N[C@H](C(=O)O)c1ccccc1
[1]
  EC50: > 150 µM (not active)
Streptokinase A
  EC50: > 150 µM (not active)
Streptococcus
  EC50: > 150 µM (not active)

## O=C(c1ccc(F)cc1)N1CCN(C2CCC(c3ccccc3)CC2)CC1 (configuration not stated)
[4]
  EC50: > 300 µM (not active)
[5]
  EC50: > 300 µM (not active)

## c1ccn2c(c1)nc1c2nc2ccccn21
[6]
  EC50: 7.67 µM (active)
[7]
  EC50: 25.1 µM (active)
H4
  EC50: > 120 µM (not active)

## CCCCn1c(CCCNC(=O)c2ccco2)nc2ccccc21
[1]
  EC50: > 150 µM (not active)
Streptokinase A
  EC50: > 150 µM (not active)
Streptococcus
  EC50: > 150 µM (not active)

## Oc1nc(CN2CCN(C/C=C/c3ccccc3)CC2)nc2ccccc12
[6]
  EC50: > 120 µM (not active)
[7]
  EC50: > 120 µM (not active)
H4
  EC50: > 120 µM (not active)
[8]
  EC50: 0.637 µM (active)
[9]
  EC50: > 60 µM (not active)

## C=CCOc1c(Cl)cc(C(=S)N2CCCC2)cc1OCC
[6]
  EC50: > 120 µM (not active)
[7]
  EC50: > 120 µM (not active)
H4
  EC50: 30.3 µM (active)

## Cc1cc(C(=O)COC(=O)Cc2nnc(O)c3ccccc23)c(C)n1-c1ccc2c(c1)OCCO2
[6]
  EC50: > 120 µM (not active)
[7]
  EC50: > 120 µM (not active)
H4
  EC50: 71.5 µM (active)
[8]
  EC50: 2.28 µM (active)
[9]
  EC50: > 60 µM (not active)

## COC(=O)/C(C#N)=C/c1c(Oc2cc(C)cc(C)c2)nc2c(C)cccn2c1=O
[4]
  EC50: 104 µM (active)
[5]
  EC50: > 300 µM (not active)

## Cc1ccc2cc(CN(Cc3cccs3)C(=O)c3ccco3)c3nnnn3c2c1C
[1]
  EC50: 2.28 µM (active)
Streptokinase A
  EC50: > 150 µM (not active)
Streptococcus
  EC50: 31.7 µM (active)

## O=C(C1CCCN(c2ncnc3c2nc2n3CCCCC2)C1)N1CCN(c2ccccc2)CC1 (configuration not stated)
[6]
  EC50: > 120 µM (not active)
[7]
  EC50: > 120 µM (not active)
H4
  EC50: > 120 µM (not active)

## CC(C)(C)c1cc(C(=O)NNc2cc(C(F)(F)F)ccc2Cl)n(Cc2ccccc2)n1
[1]
  EC50: 3.24 µM (active)
Streptokinase A
  EC50: > 150 µM (not active)
Streptococcus
  EC50: 8.74 µM (active)
[10]
  AC50: 3.81 µM (active)

## COc1ccc(NC(=O)CCl)cn1
[4]
  EC50: 9.67 µM (active)
[5]
  EC50: 8.06 µM (active)

## Clc1ccc(N2COC3c4cccc5cccc(c45)C32)cc1 (configuration not stated)
[1]
  EC50: 17.4 µM (active)
Streptokinase A
  EC50: 14.2 µM (active)
Streptococcus
  EC50: > 150 µM (not active)

## Fc1ccc(C2=CC(c3ccco3)n3ncnc3N2)cc1 (configuration not stated)
[4]
  EC50: 14.7 µM (active)
[5]
  EC50: 12.8 µM (active)

## COCC(=O)N1CCC2(CCN(Cc3ccccc3)CC2)CC1
Cytochrome P450 2D6
  AC50: 25.1 µM (inconclusive)

## COCCNC(=O)C1Nc2ccc(OC(F)(F)F)cc2C2C=CCC12 (configuration not stated)
[4]
  EC50: > 300 µM (not active)
[5]
  EC50: > 300 µM (not active)

## COc1cc2c(cc1NC(=O)CN1CCN(S(=O)(=O)c3ccccc3F)CC1)oc1ccccc12
[6]
  EC50: > 120 µM (not active)
[7]
  EC50: > 120 µM (not active)
H4
  EC50: > 120 µM (not active)

## CC1Cc2nc(SCC(=O)Nc3ccc4c(c3)OCO4)n(Cc3ccccc3)c(=O)c2S1 (configuration not stated)
[6]
  EC50: 10.8 µM (active)
[7]
  EC50: 5.9 µM (active)
H4
  EC50: 13.2 µM (active)

## CCc1ccc2[nH]c(O)c(N=Nc3nc(-c4ccccc4)cs3)c2c1
[1]
  EC50: 9.51 µM (active)
[11]
  EC50: > 195 µM (not active)
Streptokinase A
  EC50: > 150 µM (not active)
Streptococcus
  EC50: 27.3 µM (active)
Cytochrome P450 2C9
  AC50: 39.8 µM (inconclusive)

## CC(C)[C@@H]1COC(c2cccc(C3=N[C@H](C(C)C)CO3)c2)=N1
[6]
  EC50: > 120 µM (not active)
[7]
  EC50: 71.1 µM (active)
H4
  EC50: 10.6 µM (active)

## Cc1ccc(O)c(/C=N/NC(=O)Cc2ccc(Cl)cc2)c1
[1]
  EC50: 3.25 µM (active)
Streptokinase A
  EC50: > 150 µM (not active)
Streptococcus
  EC50: 13.6 µM (active)

## COc1cc(/C=N/c2oc(-c3ccccc3)cc2C#N)ccc1O
[4]
  EC50: > 300 µM (not active)
[5]
  EC50: > 300 µM (not active)

## Nc1c(Cl)ncnc1N/N=C/c1ccc(O)cc1
[2]
  EC50: 7.55 µM (active)
[3]
  EC50: 0.779 µM (active)
[12]
  IC50: 16.5 µM (active)

## CC(C)C(C(=O)Nc1nccs1)c1ccc(Cl)cc1 (configuration not stated)
[1]
  EC50: 12.7 µM (active)
Streptokinase A
  EC50: > 150 µM (not active)
Streptococcus
  EC50: > 150 µM (not active)
